Data taken from patent publication US6300327A, “Compositions and methods for potentiation of neurotrophin activity” (The University of Southern California, priority 1997, dated 2001).
pKi: −log10 of the molar value.

Key:
[1] = tested on: epidermal growth factor and basic fibroblast growth factor receptors; assay: Receptor tyrosine phosphorylation induced by epidermal growth factor and basic fibroblast growth factor in PC12 cells; assay type: cell-based; details: K-252b
[2] = biological target: cAMP-dependent protein kinase; details: in vitro assay systems; cited from earlier work
phospholipase C gamma-1 = assay: Tyrosine phosphorylation of phospholipase C gamma-1 and other cellular proteins in PC12 cells; assay type: cell-based
Description: To measure the status of trk tyrosine phosphorylation, PC12 cells were lysed and immunoprecipitated with anti-trk serum. The trk proteins were subjected to 7.5% SDS-PAGE and analyzed by immunoblotting with anti-phosphotyrosine antibodies as described in detail in the literature [Kaplan, D. R. et al., "PDGF beta receptor stimulates tyrosine phosphorylation of GAP and association of GAP with a signaling complex," Cell 61:125-133 (1990)]. Tyrosine phosphorylation of cellular proteins was assayed by probing Western blots of lysates of PC12 cells incubated with K-252b and NT-3 or NGF with anti-phosphotyrosine antibodies. Phospholipase C gammal was identified in these blots as described elsewhere [Vetter, M.L. et al., "Nerve growth factor rapidly stimulates tyrosine phosphorylation of phospholipase C-gammal by a kinase activity associated with the product of trk protooncogene," Proc. Natl Acad. Sci. USA 88:5650-5654 (1991)].

PC12 cells = assay: Neurite outgrowth of PC12 cells; assay type: cell-based; details: 48 hours
Description: PC12 cells were grown as described earlier [Kaplan et al., 1990, 1991a, b]. To assess effects on neurite outgrowth, cells were incubated for 48 hours with K-252b (50 nM) and NT-3 or NGF (50 ng/ml). Neurites were scored if they were a length of one cell body or more.
Experiments on PC12 cells confirmed observations made on primary neuron cultures. Treatment with K-252b stimulated NT-3 induced neurite outgrowth and trk tyrosine phosphorylation in PC12 cells while inhibiting NGF induced effects. PC12 cells were incubated for 48 hours with K-252b (50 nM) and NT-3 or NGF (50 ng/ml). FIG. 4A illustrates the % cells with neurites after 48 hours incubation. Neurites were scored if they were a length of one cell body or more. PC12 cells were subsequently lysed and immunoprecipitated with anti-trk serum. trk proteins were subjected to SDS-PAGE and analyzed by immunoblotting with anti-phosphotyrosine antibodies (FIG. 4B). Lane 1, NT-3 +K-252b; lane 2, NT-3; lane 3, NGF +K-252b; lane 4, NGF. For FIG. 4C, PC12 cells were incubated for 1 hour in K-252b (50 nM or 10 μM) and with NT-3 or NGF for 5 minutes prior to lysis; other methods were the same as described for FIG. 4B. Lane 1, NT-3+10 μM K-252b; lane 2, NT-3±50 nM K-252b; lane 3, NT-3; lane 4, NGF+10 μM K-252b; lane 5, NGF+50 nM K-252b; lane 6, NGF; lane 7, untreated control.

[3] = tested on: forebrain cholinergic neurons (cultures of rat basal forebrain); assay: ChAT activity in primary cultures of fetal rat basal forebrain (septal) cholinergic neurons treated with neurotrophins and K-252 compounds; assay type: cell-based
Description: Recombinant human NGF (rhNGF), BDNF (rhBDNF), and NT-3 (rhNT-3) and K-252b were added to primary cultures of fetal rat brain neurons containing either forebrain cholinergic or midbrain dopaminergic neurons. A broad range of concentrations of K-252b were tested in presence of 50 ng/ml rhNGF, 200 ng/ml rhBDNF and 1 μg/ml rhNT-3, growth factor concentrations producing maximal trophic actions on cholinergic neurons. The trophic action was monitored by measuring the activity of ChAT, a parameter reflecting both survival and transmitter-specific differentiation of cholinergic cells.
Primary cultures of fetal rat brain septal and mesencephalic cells were prepared in a heretofore known manner [Knusel et al., supra]. Briefly, defined areas were dissected from fetal rat brains (Wistar, E15-16, Charles River, Mass.). The septal area contained the cholinergic neurons from septum, diagonal band of Broca and nucleus basalis. The ventral mesencephalon containing the dopaminergic neurons of the substantia nigra and the ventral tegmental area was dissected and dissociated mechanically. The cells were plated in 16 mm multiwell plates precoated with polyethyleneimine (1 mg/ml, 37° C., overnight), containing 0.5 ml modified L-15 medium supplemented with 5% heat inactivated horse serum and 0.5% heat inactivated fetal calf serum. Modified L-15 was prepared [Knusel et al., "Selective and Nonselective Stimulation of Central Cholinergic and dopaminergic Development in vitro by Nerve Growth Factor, Basic Fibroblast Growth Factor, Epidermal Growth Factor, Insulin and the Insulin-like Growth Factors I and II," J. Neurosci. 10:558-570 (1990)] by adding various amino acids, vitamins, antibiotics, glucose and NaHCO3 to Leibovitz's L-15 medium (Gibco, Grand Island, N.Y.). Plating densities were 4×10^5 cells/cm^2 for basal forebrain cultures and 3×10^5 cells/cm^2 for mesencephalic cultures. Of these cells, 0.5 to 1% were cholinergic or dopaminergic, respectively. Growth factors were typically added on the second day of culture and the cells were grown for 5 or more days. For ChAT assays tissue was homogenized in 250 μl of 50 mM Tris-HCl buffer, pH 6.0 with 0.3% Triton X-100. [1-^14 C]acetylcoenzyme A (NEN) concentration was 20 μM and specific activity 4.09 Ci/mol. To measure dopamine uptake, cultures were preincubated for 5 min at 37° C. with 250 μl incubation solution (5 mM glucose, 1 mM ascorbic acid in PBS) containing 1 mM pargyline. [^3 H]dopamine (37 Ci/mmol) was then added to give a final concentration of 50 nM and the cultures were incubated for another 15 minutes. Blanks were obtained by incubating cells at 0° C.
FIG. 1 illustrates levels of ChAT activity in cultures of rat basal forebrain treated with rhNGF, rhBDNF, or rhNT- and K-252b. Growth factors were added on the second day of culture and the cells were grown for 5 days. Growth factor concentrations producing maximal elevations of ChAT activity were used. In FIG. 1, .largecircle. represents the control; .quadrature., 50 ng/ml rhNGF; Δ, 200 ng/ml rhBDNF; and .tangle-soliddn., 1 μg/ml rhNT-3. The ChAT stimulation mediated by all three neurotrophins was inhibited by K-252b at concentrations above 200 nM. […] N=4 per data point. Error bars represent SEMs and were omitted where they would have appeared smaller than the symbol.
These compounds were accordingly tested for possible NT-3 potentiation at lower concentrations than necessary for NGF inhibition. Culture conditions were as described in Example 1. Cultures were untreated (controls) or treated with 200 ng/ml NT-3 and increasing concentrations of the inhibitors. The findings are shown in FIG. 6, in which "Stau", "K2a", "K2b", "K57", "K58", "K59" represent, respectively, staurosporine, K-252a, K-252b, KT5720, KT5823, and KT5296. […] Staurosporine and KT5296 were ineffective.

## CC12OC(CC1(O)C(=O)O)n1c3ccccc3c3c4c(c5c6ccccc6n2c5c31)CNC4=O (centres unmarked) [K-252b]
[1]
  effect on receptor responses induced by epidermal growth factor and basic fibroblast growth factor: failed to influence
[2]
  pKi: 7.00 to 8.00
Phospholipase C gamma-1; 50 nM K-252b + NT-3
  NT-3 mediated tyrosine phosphorylation of phospholipase C gamma-1 and other proteins: enhanced
Phospholipase C gamma-1; K-252b + NGF
  tyrosine phosphorylation of phospholipase C gamma-1 and other proteins in NGF treated cells: inhibited
PC12 cells; 50 nM K-252b + NGF 50 ng/ml
  reduction of NGF-induced neurite outgrowth: approximately three-fold
PC12 cells; 50 nM K-252b + NT-3 50 ng/ml, vs NT-3 alone
  effect on NT-3 induced neurite outgrowth: significantly more neurite outgrowth activity
[3]; 100 pM to 30 nM K-252b
  effect on ChAT actions of NGF or BDNF: without affecting
[3]; 50 nM K-252b
  effect on potency and maximal efficacy of NT-3 (ChAT): increased both potency and maximal efficacy
[3]; 10-100 nM K-252b with NT-3
  effect on NT-3 stimulation of ChAT activity: same stimulatory effect as NGF
[3]; Rattus norvegicus, Neuron, read-out: minimal concentration required to completely abolish the ChAT responses
  IC100: ~2 µM
[3]; low concentrations of K-252b
  effect on stimulatory effects of NGF or BDNF on cholinergic neurons: not potentiated
[3]; non-neurotrophin growth factors
  effect on ChAT increases mediated by bFGF, insulin and insulin-like growth factor-1: not affected
[3]; relatively high dosages
  effect on trophic action of NGF on cholinergic neurons (ChAT): completely and selectively prevent
[3]; structural relatives, Example 6
  inhibition of action of central cholinergic neurons: inhibition
